Data from US7465754B1, “Method of potentiating chemotherapy and treating solid tumors” (Wyeth, priority 1999, dated 2008).

Tests used:
[1] = tested on: tumor cell growth in vitro; assay: Tumor cell growth in vitro / cell culture; assay type: cell-based
[2] = tested on: human non small-cell lung carcinoma (NSCLC) line H-157; assay: H-157 NSCLC xenograft in nude mice, tumor growth; assay type: in vivo
Protocol: The potentiating effect of bioresponse modifiers on chemotherapeutic agents was evaluated in an in vivo standard pharmacological test procedure in which a human non small cell type lung cancer (NSCLC) cell line was engrafted onto the flanks of immunodeficient nude mice. The following briefly describes the test procedure used and results obtained. [R-(R*,R*)]-N-[(R)-6-Carboxy-N^2-[[2-carboxy-1-methyl-2-[(1-oxoheptyl)amino]ethoxy]carbonyl]-L-lysyl]-alanine was used as a representative bioresponse modifier and paclitaxcel was used a representative chemotherapeutic agent.
Balb-c nu/nu female mice were obtained from Charles River Laboratories at 6-8 weeks of age and used experimentally at 8-10 weeks of age. The human non small-cell lung carcinoma (NSCLC) line H-157 was obtained from the American tissue culture collection (ATCC) (Bethesda, Md.). Cells were grown in RPMI medium with 10% fetal bovine serum.
Mice were injected subcutaneously with 7.5×10^6H-157 NSCLC tumor cells. Tumors were allowed to develop until they reached a size of 80-150 mg. Tumor size was determined using vernier calipers to measure length (l) and width (w). The tumor volume was estimated using the formula l×w^2/2. The volume in mm^3 can be converted to milligrams directly assuming unit density. Seven days after injection, mice were randomized (day 0) into groups of 10 with a mean tumor mass of 100 mg. Treatment groups received paclitaxcel (30 mg/kg) on day 0 and either vehicle or [R-(R*,R*)]-N-[(R)-6-Carboxy-N^2-[[2-carboxy-1-methyl-2-[(1-oxoheptyl)amino]ethoxy]carbonyl]-L-lysyl]-alanine (100 μg/kg) on days 1 and 8.

Row | Structure (SMILES) | potentiation of the growth inhibitory effect of paclitaxcel in cell culture ([1]; cell culture, with paclitaxcel) | direct inhibition of tumor cell growth in vitro ([1]; in vitro) | % Suppression (Day 7) ([2]; Day 7, versus untreated control, paclitaxcel 30 mg/kg day 0, vehicle or CI 100 μg/kg days 1 and 8) [%] | Tumor size (mg) Day 7 ([2]; Day 7, paclitaxcel 30 mg/kg day 0, vehicle or CI 100 μg/kg days 1 and 8, mean ± standard deviation, 5 evaluations, 10 mice/group) | % Suppression (Day 14) ([2]; Day 14, versus untreated control, paclitaxcel 30 mg/kg day 0, vehicle or CI 100 μg/kg days 1 and 8) [%] | Tumor size (mg) Day 14 ([2]; Day 14, paclitaxcel 30 mg/kg day 0, vehicle or CI 100 μg/kg days 1 and 8, mean ± standard deviation, 5 evaluations, 10 mice/group) [mg] | tumor cell growth (in words) ([2]; day 7, Student's t test) | tumor growth (in words) ([2]; day 14)
1 | CCCCCCC(=O)N[C@@H](C(=O)O)[C@@H](C)OC(=O)N[C@@H](CCC[C@@H](N)C(=O)O)C(=O)NC(C)C(=O)O (relative stereo) [CI, [R-(R*,R*)]-N-[(R)-6-carboxy-N^2-[[2-carboxy-1-methyl-2-[(1-oxoheptyl)amino]ethoxy]carbonyl]-L-lysyl]-alanine] | nor does it potentiate the growth inhibitory effect of paclitaxcel in cell culture | does not directly inhibit tumor cell growth in vitro | – | – | – | – | – | –
2 | CC(=O)O[C@H]1C(=O)[C@@]2(C)[C@H]([C@H](OC(=O)c3ccccc3)[C@]3(O)C[C@H](OC(=O)[C@H](O)[C@@H](NC(=O)c4ccccc4)c4ccccc4)C(C)=C1C3(C)C)[C@]1(OC(C)=O)CO[C@@H]1C[C@@H]2O [Paclitaxcel, paclitaxcel] | – | – | 30 | ^c289 ± 108 mg | 30 | 866 ± 348 | inhibited tumor cell growth | not significantly suppressed versus control
